Reference: the supplement of paper PMC6965134
± gives the standard deviation of the averaged measurements. Blank lines part the entries; values can stand above or below the compound they belong to.

Assay: TIMS collisional cross section (CCS, N2) of the lipid ion; higher = larger ion cross section
Details: ionization mode: negative, one isomer drawn
Experimental: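 Lipid extracts of human plasma (NIST SRM 1950), mouse liver or HeLa cells were separated by nanoflow C18 LC (30 min gradient) and analysed by TIMS-PASEF on a timsTOF Pro. Ion mobility was calibrated with the Agilent tuning mix (negative mode ions) and converted to collisional cross sections (Mason–Schamp, N2).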
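Further: lipids from MTBE extraction, five replicate injections per sample, 100 ms TIMS ramp spanning 0.6–1.95 Vs/cm², lipid identity assigned from PASEF MS/MS spectra.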

- TIMS collisional cross section (sample type: Human plasma, ion (formula + adduct): [C41H78NO8P-H] 1-): 273.4 Å²
SMILES: CCCCC/C=C\C/C=C\CCCCCCCC(=O)OC(COC(=O)CCCCCCCCCCCCCCCCC)COP(=O)(O)OCCN (stereo not drawn) [PE 18:0@_18:2]

- TIMS collisional cross section (sample type: Human plasma, ion (formula + adduct): [C41H76NO8P-H] 1-): 272 Å²
SMILES: CCCCC/C=C\C/C=C\CCCCCCCC(=O)O[C@H](COC(=O)CCCCCCC/C=C\CCCCCCCC)COP(=O)(O)OCCN [PE 18:1_18:2]

- TIMS collisional cross section (sample type: Mouse Liver, ion (formula + adduct): [C42H76NO10P-H] 1-): 281.3 Å²
SMILES: CCCCC/C=C\C/C=C\C/C=C\CCCCCCC(=O)OC[C@H](COP(=O)(O)OC[C@H](N)C(=O)O)OC(=O)CCCCCCCCCCCCCCC [PS 20:3@_16:0]

- TIMS collisional cross section (sample type: Human plasma, ion (formula + adduct): [C46H88NO7P-CH3] 1-): 285.4 Å²
SMILES: CCCCC/C=C\C/C=C\CCCCCCCC(=O)O[C@H](CO/C=C\CCCCCCCCCCCCCCCCCC)COP(=O)([O-])OCC[N+](C)(C)C [PC P- 20:0@_18:2]

- TIMS collisional cross section (sample type: Human plasma, ion (formula + adduct): [C40H78NO7P-CH3] 1-): 265.6 Å²
SMILES: CCCCC/C=C\C/C=C\CCCCCCCC(=O)O[C@H](COCCCCCCCCCCCCCC)COP(=O)([O-])OCC[N+](C)(C)C [PC O- 14:0@_18:2]

- TIMS collisional cross section (sample type: Human plasma, ion (formula + adduct): [C43H78NO9P-H] 1-): 282.5 Å²
- TIMS collisional cross section (sample type: Mouse Liver, ion (formula + adduct): [C43H78NO9P-H] 1-): 279 Å²
SMILES: CCCCC/C=C\C[C@H](O)/C=C/C=C\C/C=C\CCCC(=O)O[C@H](COC(=O)CCCCCCCCCCCCCCCCC)COP(=O)(O)OCCN [Oxidized PE 18:0_20:4]

- TIMS collisional cross section (sample type: Mouse Liver, ion (formula + adduct): [C44H78NO10P-H] 1-): 288.7 Å²
SMILES: CCCCC/C=C\C/C=C\C/C=C\C/C=C\CCCCCC(=O)OC[C@H](COP(=O)(O)OC[C@H](N)C(=O)O)OC(=O)CCCCCCCCCCCCCCC [PS 22:4@_16:0]

- TIMS collisional cross section (sample type: Mouse Liver, ion (formula + adduct): [C47H86NO8P-H] 1-): 288 Å²
SMILES: CCCCC/C=C\C/C=C\C/C=C\C/C=C\CCCC(=O)OC[C@H](COP(=O)(O)OCCN)OC(=O)CCCCCCCCCCCCCCCCCCCCC [PE 20:4_22:0]

- TIMS collisional cross section (sample type: Mouse Liver, ion (formula + adduct): [C43H74NO8P-H] 1-): 274.62 ± 0.25 Å²
SMILES: CC/C=C\C/C=C\C/C=C\C/C=C\C/C=C\C/C=C\CCC(=O)OC(COC(=O)CCCCCCCCCCCCCCC)COP(=O)(O)OCCN (stereo not drawn) [PE 16:0_22:6]

- TIMS collisional cross section (sample type: Mouse Liver, ion (formula + adduct): [C44H80NO8P-H] 1-): 279.6 Å²
SMILES: CCCCC/C=C\C/C=C\C/C=C\C/C=C\CCCC(=O)O[C@H](COC(=O)CCCCCCCCCCCCCCCCCC)COP(=O)(O)OCCN [PE 19:0_20:4]

- TIMS collisional cross section (sample type: Mouse Liver, ion (formula + adduct): [C40H74NO10P-H] 1-): 282.6 Å²
SMILES: CCCCC/C=C\C/C=C\CCCCCCCC(=O)OC[C@H](COP(=O)(O)OC[C@H](N)C(=O)O)OC(=O)CCCCCCCCCCCCCCC [PS 18:2@_16:0]

- TIMS collisional cross section (sample type: Mouse Liver, ion (formula + adduct): [C44H80NO8P-CH3] 1-): 276.2 Å²
SMILES: CCCCC/C=C\C/C=C\C/C=C\CCCCCCC(=O)O[C@H](COC(=O)CCCCCCC/C=C\CCCCCC)COP(=O)([O-])OCC[N+](C)(C)C [PC 16:1_20:3]

- TIMS collisional cross section (sample type: Mouse Liver, ion (formula + adduct): [C42H74NO10P-H] 1-): 280.1 Å²
SMILES: CCCCC/C=C\C/C=C\C/C=C\C/C=C\CCCC(=O)OC[C@H](COP(=O)(O)OC[C@H](N)C(=O)O)OC(=O)CCCCCCCCCCCCCCC [PS 20:4_16:0]

- TIMS collisional cross section (sample type: Human plasma, ion (formula + adduct): [C33H60O5-H] 1-): 229.1 Å²
SMILES: CCCCC/C=C\C/C=C\CCCCCCCC(=O)O[C@@H](CO)COC(=O)CCCCCCCCCCC [DG 12:0@_18:2_0:0]

Second part, the compound before the results:

SMILES: CCCC/C=C\CCCCCCCC(=O)OC[C@H](COP(=O)([O-])OCC[N+](C)(C)C)OC(=O)CCC/C=C\C/C=C\C/C=C\C/C=C\CCCCC [PC 14:1@_20:4]
- TIMS collisional cross section (sample type: Human plasma, ion (formula + adduct): [C42H74NO8P-CH3] 1-): 268.8 Å²

SMILES: CCCCC/C=C\C/C=C\C/C=C\C/C=C\CCCC(=O)OC[C@@H](O)COP(=O)(O)OC1C(O)C(O)C(O)[C@@H](O)C1O (stereo partly drawn) [LPI 20:4_0:0]
- TIMS collisional cross section (sample type: Human plasma, ion (formula + adduct): [C29H49O12P-H] 1-): 239.9 Å²
- TIMS collisional cross section (sample type: Mouse Liver, ion (formula + adduct): [C29H49O12P-H] 1-): 241 Å²

SMILES: CCCCCCCCCCCCCCCC(=O)OC[C@@H](O)COP(=O)([O-])OCC[N+](C)(C)C [LPC 16:0_0:0]
- TIMS collisional cross section (sample type: Human plasma, ion (formula + adduct): [C24H50NO7P+Cl] 1-): 234.8 Å²
- TIMS collisional cross section (sample type: Human plasma, ion (formula + adduct): [C24H50NO7P+HCOO] 1-): 238.02 ± 0.4 Å²
- TIMS collisional cross section (sample type: Human plasma, ion (formula + adduct): [C24H50NO7P-CH3] 1-): 218.1 Å²
- TIMS collisional cross section (sample type: Mouse Liver, ion (formula + adduct): [C24H50NO7P+HCOO] 1-): 241.2 ± 5.1 Å²
- TIMS collisional cross section (sample type: Mouse Liver, ion (formula + adduct): [C24H50NO7P-CH3] 1-): 218.7 Å²

SMILES: CCCCCC/C=C\CCCCCCCC(=O)O[C@H](CO/C=C\CCCCCCCCCCCCCC)COP(=O)([O-])OCC[N+](C)(C)C [PC P- 16:0@_16:1]
- TIMS collisional cross section (sample type: Mouse Liver, ion (formula + adduct): [C40H78NO7P+OAcO] 1-): 283.6 Å²

SMILES: CCCCC/C=C\C/C=C\C/C=C\C/C=C\CCCC(=O)O[C@H](COCCCCCCCCCCCCCC)COP(=O)([O-])OCC[N+](C)(C)C [PC O- 14:0@_20:4]
- TIMS collisional cross section (sample type: Human plasma, ion (formula + adduct): [C42H78NO7P-CH3] 1-): 270.6 Å²

SMILES: CC/C=C\C/C=C\C/C=C\C/C=C\C/C=C\C/C=C\CCC(=O)O[C@H](COC(=O)CCCC/C=C\C/C=C\C/C=C\C/C=C\CC)COP(=O)([O-])OCC[N+](C)(C)C [PC 18:4@_22:6]
- TIMS collisional cross section (sample type: Mouse Liver, ion (formula + adduct): [C48H76NO8P-CH3] 1-): 280 Å²

SMILES: CC/C=C\C/C=C\C/C=C\C/C=C\CCCCCCC(=O)O[C@H](COCCCCCCCCCC/C=C\CCCCCCCC)COP(=O)([O-])OCC[N+](C)(C)C [PC O- 20:1@_20:4]
- TIMS collisional cross section (sample type: Human plasma, ion (formula + adduct): [C48H88NO7P+HCOO] 1-): 302.3 Å²

SMILES: CCCCC/C=C\C/C=C\CCCCCCCC(=O)OC[C@@H](O)COP(=O)(O)O [LPA 18:2_0:0]
- TIMS collisional cross section (sample type: Human plasma, ion (formula + adduct): [C21H39O7P-H] 1-): 207.7 ± 8.1 Å²

SMILES: CCCCCCCCCCCCC/C=C/[C@@H](O)[C@H](CO)NC(=O)CCCCCCCCCCCCCCCCCCCCC [Cer d18:1_22:0]
- TIMS collisional cross section (sample type: Mouse Liver, ion (formula + adduct): [C40H79NO3-H] 1-): 265 Å²

SMILES: CC/C=C\C/C=C\C/C=C\C/C=C\C/C=C\C/C=C\CCC(=O)OC[C@H](COP(=O)(O)OCCN)OC(=O)CCC/C=C\C/C=C\C/C=C\C/C=C\C/C=C\CC [PE 22:6@_20:5]
- TIMS collisional cross section (sample type: Mouse Liver, ion (formula + adduct): [C47H72NO8P-H] 1-): 279.4 Å²

SMILES: CCCCC/C=C\C/C=C\C/C=C\CCCCC(=O)OC[C@@H](O)COP(=O)(O)OCCN [LPE 18:3_0:0]
- TIMS collisional cross section (sample type: Human plasma, ion (formula + adduct): [C23H42NO7P-H] 1-): 211.6 Å²

SMILES: CCCCCCCCC/C=C\CCCCCCCC(=O)O[C@H](COCCCCCCCCCCCCCCCCCCCC)COP(=O)(O)OCCN [PE O- 20:0@_19:1]
- TIMS collisional cross section (sample type: Human plasma, ion (formula + adduct): [C44H88NO7P+AcO] 1-): 303.7 Å²

SMILES: CCCCC/C=C\C/C=C\C/C=C\C/C=C\CCCC(=O)OC[C@@H](O)COP(=O)([O-])OCC[N+](C)(C)C [LPC 20:4_0:0]
- TIMS collisional cross section (sample type: Human plasma, ion (formula + adduct): [C28H50NO7P+HCOO] 1-): 243.1 Å²
- TIMS collisional cross section (sample type: Human plasma, ion (formula + adduct): [C28H50NO7P-CH3] 1-): 225.9 ± 0.85 Å²

SMILES: CCCCCC/C=C\CCCCCCCC(=O)OCC(COP(=O)(O)OCCN)OC(=O)CCCCCCC/C=C\CCCCCC (stereo not drawn) [PE 16:1_16:1]
- TIMS collisional cross section (sample type: Mouse Liver, ion (formula + adduct): [C37H70NO8P-H] 1-): 259.3 Å²

SMILES: CCCCCCCCCCCCCCCCCC(=O)OC[C@@H](O)COP(=O)([O-])OCC[N+](C)(C)C [LPC 18:0_0:0]
- TIMS collisional cross section (sample type: Human plasma, ion (formula + adduct): [C26H54NO7P+HCOO] 1-): 246.01 ± 2.8 Å²
- TIMS collisional cross section (sample type: Human plasma, ion (formula + adduct): [C26H54NO7P-CH3] 1-): 225.5 Å²
- TIMS collisional cross section (sample type: Mouse Liver, ion (formula + adduct): [C26H54NO7P+HCOO] 1-): 244.8 ± 0.42 Å²

SMILES: CCCCCCCCCCCCCCCCCCCC(=O)OC[C@@H](O)COP(=O)(O)OCCN [LPE 20:0_0:0]
- TIMS collisional cross section (sample type: Human plasma, ion (formula + adduct): [C25H52NO7P-H] 1-): 224.9 Å²
- TIMS collisional cross section (sample type: Mouse Liver, ion (formula + adduct): [C25H52NO7P-CH3] 1-): 220.9 Å²

SMILES: CC/C=C\C/C=C\C/C=C\C/C=C\C/C=C\C/C=C\CCC(=O)O[C@H](COC(=O)CCCCCCC/C=C\CCCCCCCC)COP(=O)(O)OC[C@@H](O)CO [PG 18:1_22:6@]
- TIMS collisional cross section (sample type: Mouse Liver, ion (formula + adduct): [C46H77O10P-H] 1-): 288.6 Å²

SMILES: CCCCCCCCCCCCCCCCOCC(O)COP(=O)([O-])OCC[N+](C)(C)C (stereo not drawn) [LPC O- 16:0]
- TIMS collisional cross section (sample type: Human plasma, ion (formula + adduct): [C24H52NO6P+HCOO] 1-): 236.6 Å²

SMILES: CC/C=C\C/C=C\C/C=C\C/C=C\C/C=C\C/C=C\CCC(=O)O[C@H](COC(=O)CCCCCCCCC/C=C\C/C=C\CCCCC)COP(=O)([O-])OCC[N+](C)(C)C [PC 20:2@_22:6]
- TIMS collisional cross section (sample type: Mouse Liver, ion (formula + adduct): [C50H84NO8P+HCOO] 1-): 303.9 Å²
